# Assay results reported in ChEMBL document CHEMBL1201862, “PubChem BioAssay data set” (2004).
# Active and inactive are the calls of the source. Rule as the data show it, for most assays here: actives have a measured EC50 and inactives only a lower limit.
# Legend:
# Paired box protein Pax-8 = Paired box protein Pax-8 (Homo sapiens, UniProt Q06710); assay: inhibitors of PAX8-driven TPO luciferase reporter, dose response, RMG-I cells, cherry-pick (AID 687027); format: functional, cell-based;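 also: luciferase reporter driven by Pax8 target thyroperoxidase promoter measured by SteadyGlo luminescence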
# [1] = Luminescence Cell-Based Dose Response HTS to Identify Inhibitors of 5'UTR Stem-Loop Driven Prion Protein mRNA Translation in H4 Neuroglioblastoma Cells. [Related pubchem assays: 1827 (Project Summary), 1813 (Primary HTS)]; format: functional
# [2] = inhibitors of SNCA 5'UTR-driven reporter translation, confirmation, H4 neuroglioma cells, luminescence (AID 1988); format: functional, cell-based
# [3] = inhibitors of firefly luciferase expression or activity, dose response, H4 neuroglioma cells, luminescence (AID 1990); format: functional, cell-based
# [4] = target: T1, Corticotropin-releasing factor receptor 2/Corticotropin-releasing factor-binding protein (Homo sapiens, UniProt P24387+Q13324); assay: Dose Response confirmation of uHTS hits for small molecule antagonists of the CRF-binding protein and CRF-R2 receptor complex.; format: functional; conditions: read-out: IC50_Mean
# T1 sequence (Q13324 whole entry): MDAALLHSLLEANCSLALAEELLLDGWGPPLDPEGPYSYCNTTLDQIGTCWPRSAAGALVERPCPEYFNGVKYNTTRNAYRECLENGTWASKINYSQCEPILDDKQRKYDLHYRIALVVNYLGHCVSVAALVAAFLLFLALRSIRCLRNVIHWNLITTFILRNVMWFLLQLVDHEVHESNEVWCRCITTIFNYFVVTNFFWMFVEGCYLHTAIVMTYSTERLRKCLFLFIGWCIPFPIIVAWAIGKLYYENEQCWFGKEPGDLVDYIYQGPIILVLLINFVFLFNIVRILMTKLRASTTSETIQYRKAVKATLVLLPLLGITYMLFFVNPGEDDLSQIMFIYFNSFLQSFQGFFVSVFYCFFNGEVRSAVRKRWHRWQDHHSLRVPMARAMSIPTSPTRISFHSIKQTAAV
# T1 sequence (P24387 whole entry): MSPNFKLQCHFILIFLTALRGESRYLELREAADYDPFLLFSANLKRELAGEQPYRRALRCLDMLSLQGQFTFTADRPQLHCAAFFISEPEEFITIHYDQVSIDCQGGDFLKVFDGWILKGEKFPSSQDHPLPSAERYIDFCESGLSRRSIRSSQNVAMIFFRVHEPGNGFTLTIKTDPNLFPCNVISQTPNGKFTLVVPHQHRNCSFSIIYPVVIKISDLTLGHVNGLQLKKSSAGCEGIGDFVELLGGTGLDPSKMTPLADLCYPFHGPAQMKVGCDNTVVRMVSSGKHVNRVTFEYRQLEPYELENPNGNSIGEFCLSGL
# [5] = target: T1, Corticotropin-releasing factor receptor 2/Corticotropin-releasing factor-binding protein; assay: activators of CRF receptor 2 with binding protein – uHTS hits, confirmation (AID 602473); format: functional; conditions: read-out: EC50_Mean
# [6] = growth suppression of PTEN-null colon cells, dose response, cell-based, HCT116 PTEN knockout (AID 1047); format: functional;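 also: HCT116 colon tumor cells with PTEN knocked out; cells exposed to compound for 60 hours before readout; potency for loss of cell viability measured by luminescence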
# [7] = growth suppression of beta-catenin-knockout colon cells, dose response, cell-based, HCT116, human colon tumor (AID 1045); format: functional;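 also: HCT116 colon tumor cells with beta catenin knocked out; cells exposed to compound for 60 hours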
# Protein skinhead-1 = target: T2, Protein skinhead-1 (Caenorhabditis elegans, UniProt P34707); format: functional
# T2 sequence (P34707 whole entry): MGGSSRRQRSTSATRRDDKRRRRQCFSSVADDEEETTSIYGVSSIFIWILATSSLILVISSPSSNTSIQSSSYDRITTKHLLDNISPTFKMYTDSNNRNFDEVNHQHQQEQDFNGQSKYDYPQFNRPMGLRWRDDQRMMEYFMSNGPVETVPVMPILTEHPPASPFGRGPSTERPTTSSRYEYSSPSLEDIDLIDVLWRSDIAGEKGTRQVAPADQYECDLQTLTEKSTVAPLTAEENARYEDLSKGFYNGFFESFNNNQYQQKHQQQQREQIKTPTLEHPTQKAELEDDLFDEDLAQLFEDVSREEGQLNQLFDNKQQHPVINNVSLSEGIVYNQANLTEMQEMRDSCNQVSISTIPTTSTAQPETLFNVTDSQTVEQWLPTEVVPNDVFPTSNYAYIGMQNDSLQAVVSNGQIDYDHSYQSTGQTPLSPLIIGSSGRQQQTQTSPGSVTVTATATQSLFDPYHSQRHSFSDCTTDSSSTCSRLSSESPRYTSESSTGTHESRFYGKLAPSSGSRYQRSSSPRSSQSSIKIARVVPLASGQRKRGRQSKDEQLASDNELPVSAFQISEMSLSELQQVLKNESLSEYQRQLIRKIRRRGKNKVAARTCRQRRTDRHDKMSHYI
# [8] = inhibitors of intracellular T. cruzi replication, confirmation, NIH3T3 host cells, beta-gal luminescence (AID 2044); format: functional, cell-based;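 also: intracellular parasites grown in NIH/3T3 mouse fibroblasts as host cells; luminescent beta-galactosidase reporter signal from transgenic T. cruzi replicating inside host cells; inhibitors lower the luminescence signal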
# [9] = target: T3, Heat shock factor protein 1 (Mus musculus, UniProt P38532); assay: inhibition of MG132-induced HSE-luciferase signal, confirmation, cell-based, NIH3T3, luminescence, dose retest (AID 2382); format: functional;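 also: NIH3T3 fibroblasts with HSF1-driven luciferase reporter stressed by proteasome inhibitor MG132; luminescence from HSF1-driven luciferase expression after 8 hours of MG132 stress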
# T3 sequence (P38532 whole entry): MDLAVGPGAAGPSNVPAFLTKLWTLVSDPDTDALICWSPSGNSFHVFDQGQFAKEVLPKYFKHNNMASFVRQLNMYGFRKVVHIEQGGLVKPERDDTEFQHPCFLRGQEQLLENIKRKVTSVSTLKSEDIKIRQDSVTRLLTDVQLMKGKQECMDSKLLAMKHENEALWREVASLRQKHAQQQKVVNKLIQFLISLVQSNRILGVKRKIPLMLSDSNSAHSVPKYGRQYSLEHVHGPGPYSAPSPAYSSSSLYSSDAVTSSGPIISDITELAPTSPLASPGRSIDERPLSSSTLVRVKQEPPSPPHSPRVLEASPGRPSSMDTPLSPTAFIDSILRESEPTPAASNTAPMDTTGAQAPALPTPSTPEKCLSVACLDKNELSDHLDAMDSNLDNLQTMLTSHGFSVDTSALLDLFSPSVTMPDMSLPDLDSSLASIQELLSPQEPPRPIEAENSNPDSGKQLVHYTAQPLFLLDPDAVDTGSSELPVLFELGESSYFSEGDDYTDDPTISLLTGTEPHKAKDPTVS
# [10] = cytotoxicity toward NIH3T3 fibroblasts, dose response, counter-screen, cell-based, ATP luminescence, mouse fibroblasts (AID 2010); format: functional;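 also: cells exposed to compound for about 90 hours before reading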
# Streptococcus = assay: Group A Streptococcus viability loss, dose response, counter-screen for streptokinase expression inhibitor project, luminescence, BacTiterGlo (AID 1915); format: functional, organism-based;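 also: potency for reduction of bacterial viability or growth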
# [11] = system: Streptococcus sp. 'group A'; assay: growth inhibition of control SK(-) GAS strain, dose response, counter-screen for streptokinase expression inhibitor project, luminescence, kanamycin, BacTiterGlo, confirmation (AID 1900); format: functional, organism-based
# Paired box protein Pax-8, sequence (Q06710 whole entry): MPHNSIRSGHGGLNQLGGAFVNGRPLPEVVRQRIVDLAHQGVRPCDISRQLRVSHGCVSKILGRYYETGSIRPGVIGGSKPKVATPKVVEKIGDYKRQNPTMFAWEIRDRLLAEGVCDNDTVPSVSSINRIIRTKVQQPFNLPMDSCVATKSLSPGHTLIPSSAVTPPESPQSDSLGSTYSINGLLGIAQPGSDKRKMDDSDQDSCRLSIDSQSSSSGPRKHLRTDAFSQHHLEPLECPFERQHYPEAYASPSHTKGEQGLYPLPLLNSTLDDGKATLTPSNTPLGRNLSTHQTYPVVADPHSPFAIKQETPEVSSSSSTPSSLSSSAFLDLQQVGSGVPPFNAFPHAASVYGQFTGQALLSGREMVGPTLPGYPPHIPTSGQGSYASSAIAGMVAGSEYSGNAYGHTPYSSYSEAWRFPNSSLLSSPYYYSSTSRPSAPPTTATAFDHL
structure (smiles),measurement,setting,value
O=S(=O)(c1ccc(F)cc1)N1C[C@H]2[C@@H](c3ccccc31)[C@H](CO)N2Cc1ccccc1Cl,AC50,Paired box protein Pax-8,11 µM (active)
CC(=O)Nc1ccc(NC(=O)CN(c2ccc(C(C)C)cc2)S(=O)(=O)c2ccccc2)cc1,EC50,[1],> 120 µM (not active)
same,EC50,[2],> 120 µM (not active)
same,EC50,[3],> 120 µM (not active)
COc1ccc(S(=O)(=O)NNC(=O)c2csc(-n3nc(C)cc3C(F)(F)F)n2)cc1,IC50,[4],> 47.1 µM (inactive)
same,EC50,[5],> 53 µM (inactive)
C=C(C)c1cccc(C(C)(C)NC(=O)N2CCN(c3ccccc3OC)CC2)c1,AC50,Paired box protein Pax-8,65.2 µM (active)
COc1ccc(Oc2ccc(/C=C/C(=O)c3ccc(O)cc3)cc2[N+](=O)[O-])cc1,EC50,[6],2.53 µM (active)
same,EC50,[7],2.14 µM (active)
C/C=C/Cn1c(Br)nc2c1c(=O)n(C)c(=O)n2C,EC50,[1],> 120 µM (not active)
same,EC50,[2],59.3 µM (active)
same,EC50,[3],> 120 µM (not active)
CC/N=C1\S/C(=C\c2ccc(Sc3ccc(Cl)cc3)o2)C(=O)N1CC,EC50,[1],> 120 µM (not active)
same,EC50,[2],> 120 µM (not active)
same,EC50,[3],21.4 µM (active)
COC(=O)[C@]12CCCCC=C1N(Cc1ccc(Cl)cc1Cl)C(=O)[C@H](CC(=O)N1CCN(C(=O)c3ccco3)CC1)C2,AC50,Paired box protein Pax-8,1.33 µM (active)
O=[N+]([O-])c1ccc(COc2cccc3cccnc23)cc1,IC50,Protein skinhead-1,> 100 µM (inactive)
COc1nc(-c2ccccc2)ccc1-c1noc(-c2ccco2)n1,IC50,Protein skinhead-1,> 100 µM (inactive)
CC(=O)NCCc1cc2cc(C)c(C)cc2nc1O,IC50,Protein skinhead-1,> 100 µM (inactive)
Cc1ccc2c(N)c(C(=O)N(c3ccccc3)c3ccccc3)sc2n1,EC50,[8],1.3 µM (active)
same,EC50,[9],> 195 µM (not active)
same,EC50,[10],> 60 µM (not active)
COc1ccc(NC(=O)c2cc(C(=O)Nc3ccc(OC)cc3OC)cc([N+](=O)[O-])c2)c(OC)c1,IC50,[4],> 47.1 µM (inactive)
same,EC50,[5],> 53 µM (inactive)
CCCCc1nnc2c(N(C)S(=O)(=O)c3ccccc3)nc3ccccc3n12,IC50,[4],> 47.1 µM (inactive)
same,EC50,[5],> 53 µM (inactive)
CCCCN(CC)S(=O)(=O)c1ccc(C(=O)Nc2nnc(-c3ccccc3Cl)o2)cc1,EC50,Streptococcus,0.737 µM (active)
same,EC50,[1],12.1 µM (active)
same,EC50,[2],10 µM (active)
same,EC50,[11],0.2 µM (active)
same,EC50,[3],11.9 µM (active)
CCn1ncc(C(=O)Nc2ccc([N+](=O)[O-])cc2OC)c1C,IC50,[4],> 47.1 µM (inactive)
same,EC50,[5],> 53 µM (inactive)
CC(C1CC1)N(Cc1ccccc1)C(S)=Nc1cccc(C(F)(F)F)c1 (centres undefined),AC50,Paired box protein Pax-8,33.2 µM (active)
